Assays:
[1] = target: T1, JAK 3 (Homo sapiens, UniProt P52333); assay: Biochemical potency on JAK3, TR-FRET LANCE Ultra kinase assay (examples 1-99); conditions: ATP at Km (0.2 μM), read-out: JAK3 inhibitory activity (pIC50 class) (converted)
T1 sequence (P52333 1-1124): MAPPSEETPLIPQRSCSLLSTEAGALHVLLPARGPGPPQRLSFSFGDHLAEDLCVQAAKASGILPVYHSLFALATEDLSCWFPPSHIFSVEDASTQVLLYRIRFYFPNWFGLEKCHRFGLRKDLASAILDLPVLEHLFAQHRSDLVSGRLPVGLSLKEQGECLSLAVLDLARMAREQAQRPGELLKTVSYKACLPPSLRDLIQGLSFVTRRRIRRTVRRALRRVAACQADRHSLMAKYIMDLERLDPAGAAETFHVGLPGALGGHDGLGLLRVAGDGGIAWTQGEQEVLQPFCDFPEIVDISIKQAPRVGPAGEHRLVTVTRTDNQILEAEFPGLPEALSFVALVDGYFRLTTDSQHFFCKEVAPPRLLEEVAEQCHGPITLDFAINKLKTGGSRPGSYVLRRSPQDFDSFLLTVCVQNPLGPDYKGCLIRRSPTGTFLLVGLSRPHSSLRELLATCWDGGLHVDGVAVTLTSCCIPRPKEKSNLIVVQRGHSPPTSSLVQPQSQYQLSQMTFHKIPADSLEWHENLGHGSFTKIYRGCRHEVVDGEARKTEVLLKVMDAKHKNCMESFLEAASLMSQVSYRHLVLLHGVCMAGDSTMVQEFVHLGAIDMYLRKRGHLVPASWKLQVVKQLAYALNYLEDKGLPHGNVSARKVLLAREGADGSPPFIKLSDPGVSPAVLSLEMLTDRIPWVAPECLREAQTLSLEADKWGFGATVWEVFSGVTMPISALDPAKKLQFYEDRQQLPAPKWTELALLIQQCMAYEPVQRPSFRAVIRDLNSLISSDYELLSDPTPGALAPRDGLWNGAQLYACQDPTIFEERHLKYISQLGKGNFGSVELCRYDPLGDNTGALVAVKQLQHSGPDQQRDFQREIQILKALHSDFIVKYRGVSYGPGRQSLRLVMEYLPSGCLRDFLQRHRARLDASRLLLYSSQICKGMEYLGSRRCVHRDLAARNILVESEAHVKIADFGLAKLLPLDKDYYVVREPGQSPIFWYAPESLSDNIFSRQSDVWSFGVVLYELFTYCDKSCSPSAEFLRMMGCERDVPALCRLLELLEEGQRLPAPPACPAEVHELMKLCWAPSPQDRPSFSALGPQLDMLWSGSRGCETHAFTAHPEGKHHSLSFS
How it was run: (§1)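 Inhibition of each JAK family kinase is measured as loss of phosphotyrosine signal on a ULight peptide, detected by Eu-PT66 antibody (final 0.5 nM) via time-resolved FRET. ATP sits near Km for each isoform. Dose–response spans 20 μM downward in 5-fold steps, 11 points.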

[2] = target: TYK2 (Homo sapiens, UniProt P29597); assay: Biochemical potency on Tyk2, TR-FRET LANCE Ultra kinase assay (examples 1-99); conditions: ATP at Km (12 μM), read-out: Tyk2 inhibitory activity (pIC50 class) (converted)
How it was run: as §1

[3] = target: JAK 1 (Homo sapiens, UniProt P23458); assay: Biochemical potency on JAK1, TR-FRET LANCE Ultra kinase assay (examples 1-99); conditions: ATP at Km (20 μM), read-out: JAK1 inhibitory activity (pIC50 class) (converted)
How it was run: as §1

[4] = target: JAK 2 (Homo sapiens, UniProt O60674); assay: Biochemical potency on JAK2, TR-FRET LANCE Ultra kinase assay (examples 1-99); conditions: ATP at Km (0.7 μM), read-out: JAK2 inhibitory activity (pIC50 class) (converted)
How it was run: as §1

JAK 1, sequence (P23458 whole entry): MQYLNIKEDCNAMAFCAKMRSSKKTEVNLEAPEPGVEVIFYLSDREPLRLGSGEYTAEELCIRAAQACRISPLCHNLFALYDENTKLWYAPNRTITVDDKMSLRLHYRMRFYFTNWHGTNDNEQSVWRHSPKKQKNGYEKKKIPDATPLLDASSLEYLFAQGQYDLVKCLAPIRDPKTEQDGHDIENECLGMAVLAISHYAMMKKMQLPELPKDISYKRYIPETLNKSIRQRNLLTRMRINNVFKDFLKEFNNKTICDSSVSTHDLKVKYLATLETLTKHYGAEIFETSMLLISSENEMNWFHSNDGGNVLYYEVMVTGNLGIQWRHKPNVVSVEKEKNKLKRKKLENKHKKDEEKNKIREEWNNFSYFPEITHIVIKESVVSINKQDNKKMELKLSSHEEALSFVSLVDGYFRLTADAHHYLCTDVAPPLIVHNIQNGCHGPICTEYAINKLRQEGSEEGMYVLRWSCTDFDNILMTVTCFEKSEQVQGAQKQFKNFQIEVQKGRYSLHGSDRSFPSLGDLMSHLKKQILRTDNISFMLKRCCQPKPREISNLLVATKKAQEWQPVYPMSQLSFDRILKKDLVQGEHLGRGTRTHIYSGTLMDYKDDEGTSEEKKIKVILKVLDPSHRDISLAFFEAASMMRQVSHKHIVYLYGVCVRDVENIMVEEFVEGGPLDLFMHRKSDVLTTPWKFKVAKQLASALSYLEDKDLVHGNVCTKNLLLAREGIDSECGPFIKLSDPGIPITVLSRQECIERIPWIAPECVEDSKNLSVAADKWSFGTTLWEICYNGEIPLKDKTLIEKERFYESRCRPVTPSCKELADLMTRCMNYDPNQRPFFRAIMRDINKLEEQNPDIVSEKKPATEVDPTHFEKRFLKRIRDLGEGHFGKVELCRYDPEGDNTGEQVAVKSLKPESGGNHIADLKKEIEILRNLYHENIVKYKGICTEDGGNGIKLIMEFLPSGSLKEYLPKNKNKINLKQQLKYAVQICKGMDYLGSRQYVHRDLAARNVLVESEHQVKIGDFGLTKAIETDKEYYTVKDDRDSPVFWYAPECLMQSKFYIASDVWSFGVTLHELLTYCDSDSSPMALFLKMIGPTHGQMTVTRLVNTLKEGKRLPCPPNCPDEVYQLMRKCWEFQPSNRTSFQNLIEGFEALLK
TYK2, sequence (P29597 whole entry): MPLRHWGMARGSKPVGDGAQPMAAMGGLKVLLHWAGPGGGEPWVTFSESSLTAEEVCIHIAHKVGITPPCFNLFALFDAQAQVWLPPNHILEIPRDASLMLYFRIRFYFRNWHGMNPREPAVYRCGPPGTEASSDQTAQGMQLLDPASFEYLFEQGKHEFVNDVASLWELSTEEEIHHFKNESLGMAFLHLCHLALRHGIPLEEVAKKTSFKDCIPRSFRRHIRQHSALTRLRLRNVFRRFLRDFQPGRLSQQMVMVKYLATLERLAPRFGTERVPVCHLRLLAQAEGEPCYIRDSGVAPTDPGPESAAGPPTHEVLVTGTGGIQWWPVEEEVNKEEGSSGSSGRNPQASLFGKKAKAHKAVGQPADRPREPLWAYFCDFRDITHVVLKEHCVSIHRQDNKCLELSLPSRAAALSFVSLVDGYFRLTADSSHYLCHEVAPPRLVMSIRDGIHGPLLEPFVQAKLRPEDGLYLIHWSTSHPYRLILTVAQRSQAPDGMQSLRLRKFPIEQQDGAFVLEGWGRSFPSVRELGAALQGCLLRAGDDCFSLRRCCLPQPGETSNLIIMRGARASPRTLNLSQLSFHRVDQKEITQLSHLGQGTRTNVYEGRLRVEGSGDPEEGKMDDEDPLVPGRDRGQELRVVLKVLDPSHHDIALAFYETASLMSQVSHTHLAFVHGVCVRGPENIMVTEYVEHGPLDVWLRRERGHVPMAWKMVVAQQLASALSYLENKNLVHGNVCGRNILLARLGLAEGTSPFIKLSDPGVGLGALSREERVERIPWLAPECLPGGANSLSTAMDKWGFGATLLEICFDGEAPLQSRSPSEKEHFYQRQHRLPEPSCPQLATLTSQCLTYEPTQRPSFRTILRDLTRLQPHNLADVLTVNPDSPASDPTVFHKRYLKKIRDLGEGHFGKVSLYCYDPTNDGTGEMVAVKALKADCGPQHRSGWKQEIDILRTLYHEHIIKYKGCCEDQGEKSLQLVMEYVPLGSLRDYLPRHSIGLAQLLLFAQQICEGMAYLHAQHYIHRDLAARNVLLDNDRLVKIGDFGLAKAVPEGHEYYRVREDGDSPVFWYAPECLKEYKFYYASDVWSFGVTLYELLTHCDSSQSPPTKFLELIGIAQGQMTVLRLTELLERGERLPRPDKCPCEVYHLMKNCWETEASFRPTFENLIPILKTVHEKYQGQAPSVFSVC
JAK 2, sequence (O60674 whole entry): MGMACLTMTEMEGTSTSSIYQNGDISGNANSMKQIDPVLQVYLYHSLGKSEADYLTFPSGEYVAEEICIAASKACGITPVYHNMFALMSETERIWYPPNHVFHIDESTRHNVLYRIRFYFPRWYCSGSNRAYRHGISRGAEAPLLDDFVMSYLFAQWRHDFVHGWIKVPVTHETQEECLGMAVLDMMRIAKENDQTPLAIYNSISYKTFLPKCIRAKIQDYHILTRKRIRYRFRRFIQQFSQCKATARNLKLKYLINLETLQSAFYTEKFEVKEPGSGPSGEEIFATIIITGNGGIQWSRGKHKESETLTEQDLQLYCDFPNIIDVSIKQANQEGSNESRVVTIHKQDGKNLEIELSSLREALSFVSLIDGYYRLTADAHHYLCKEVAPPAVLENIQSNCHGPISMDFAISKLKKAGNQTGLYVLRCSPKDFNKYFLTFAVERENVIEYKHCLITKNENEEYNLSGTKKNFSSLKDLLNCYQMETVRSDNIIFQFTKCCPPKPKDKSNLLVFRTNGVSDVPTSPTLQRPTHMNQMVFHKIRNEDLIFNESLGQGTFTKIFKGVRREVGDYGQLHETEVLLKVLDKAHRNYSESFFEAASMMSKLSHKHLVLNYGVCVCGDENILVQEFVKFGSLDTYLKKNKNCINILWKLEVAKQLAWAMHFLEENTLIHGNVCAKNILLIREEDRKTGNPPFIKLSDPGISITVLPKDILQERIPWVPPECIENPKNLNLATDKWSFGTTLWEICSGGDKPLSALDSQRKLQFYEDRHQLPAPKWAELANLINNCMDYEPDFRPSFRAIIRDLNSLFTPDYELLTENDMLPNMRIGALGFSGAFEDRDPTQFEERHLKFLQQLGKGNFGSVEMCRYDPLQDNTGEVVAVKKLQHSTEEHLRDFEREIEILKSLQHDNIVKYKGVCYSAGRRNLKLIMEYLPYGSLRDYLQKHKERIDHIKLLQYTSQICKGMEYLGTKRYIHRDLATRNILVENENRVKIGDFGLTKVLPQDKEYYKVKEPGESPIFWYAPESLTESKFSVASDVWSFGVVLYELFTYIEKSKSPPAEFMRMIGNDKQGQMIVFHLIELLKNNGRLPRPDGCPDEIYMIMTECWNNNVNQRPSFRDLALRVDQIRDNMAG

`CSc1ccc(OC(F)F)c(-n2nc(NCCCN(C)C)c3cnc(-c4cnn5cccnc45)cc32)c1` [Example 46, N1-(1-(2-(difluoromethoxy)-5-(methylthio)phenyl)-6-(pyrazolo[1,5-a]pyrimidin-3-yl)-1H-pyrazolo[4,3-c]pyridin-3-yl)-N3,N3-dimethylpropane-1,3-diamine] was tested, and the IC50 [1] was at most 5.01 nM, the IC50 [2] was 5.01 to 50.1 nM and the IC50 [3] was 5.01 to 50.1 nM. The IC50 [4] was at most 5.01 nM.

Work on `COc1ccc(Cl)cc1-n1nc(N2CCN(C(C)=O)CC2)c2cnc(-c3cnn4cccnc34)cc21` [Example 47, 1-(4-(1-(5-chloro-2-methoxyphenyl)-6-(pyrazolo[1,5-a]pyrimidin-3-yl)-1H-pyrazolo[4,3-c]pyridin-3-yl)piperazin-1-yl)ethan-1-one] yielded an IC50 [1] of 5.01 to 50.1 nM, an IC50 [2] of over 50.1 nM and an IC50 [3] of 5.01 to 50.1 nM. The IC50 [4] was 5.01 to 50.1 nM.

In the case of `COc1ccc(Cl)cc1-n1nc(N2CCNCC2)c2cnc(-c3cnn4cccnc34)cc21` [Example 48, 1-(5-chloro-2-methoxyphenyl)-3-(piperazin-1-yl)-6-(pyrazolo[1,5-a]pyrimidin-3-yl)-1H-pyrazolo[4,3-c]pyridine], the IC50 [1] was 5.01 to 50.1 nM, the IC50 [2] was 5.01 to 50.1 nM and the IC50 [3] was 5.01 to 50.1 nM. For the same compound, the IC50 [4] was 5.01 to 50.1 nM.

`COc1ccc(Cl)cc1-n1nc(N2CC(CO)C2)c2cnc(-c3cnn4cccnc34)cc21` [Example 49, (1-(1-(5-chloro-2-methoxyphenyl)-6-(pyrazolo[1,5-a]pyrimidin-3-yl)-1H-pyrazolo[4,3-c]pyridin-3-yl)azetidin-3-yl)methanol] was tested, and the IC50 [1] was 5.01 to 50.1 nM, the IC50 [2] was 5.01 to 50.1 nM and the IC50 [3] was 5.01 to 50.1 nM. It also gave an IC50 [4] of 5.01 to 50.1 nM.

In the case of `COc1ccc(Cl)cc1-n1nc(OC)c2cnc(-c3cnn4cccnc34)cc21` [Example 50, 1-(5-chloro-2-methoxyphenyl)-3-methoxy-6-(pyrazolo[1,5-a]pyrimidin-3-yl)-1H-pyrazolo[4,3-c]pyridine], the IC50 [1] was 5.01 to 50.1 nM, the IC50 [2] was 5.01 to 50.1 nM and the IC50 [3] was 5.01 to 50.1 nM. For the same compound, the IC50 [4] was 5.01 to 50.1 nM.

`COc1ccc(Cl)cc1-n1ncc2c(N(C)C)nc(-c3cnn4cccnc34)cc21` [Example 51, 1-(5-chloro-2-methoxyphenyl)-N,N-dimethyl-6-(pyrazolo[1,5-a]pyrimidin-3-yl)-1H-pyrazolo[4,3-c]pyridin-4-amine] showed an IC50 [1] of 5.01 to 50.1 nM, an IC50 [2] of over 50.1 nM and an IC50 [3] of 5.01 to 50.1 nM. For the same compound, the IC50 [4] was 5.01 to 50.1 nM.

Work on `CNc1nc(-c2cnn3cccnc23)cc2c1cnn2-c1cc(Cl)ccc1OC` [Example 52, 1-(5-chloro-2-methoxyphenyl)-N-methyl-6-(pyrazolo[1,5-a]pyrimidin-3-yl)-1H-pyrazolo[4,3-c]pyridin-4-amine] yielded an IC50 [1] of over 50.1 nM, an IC50 [2] of over 50.1 nM and an IC50 [3] of over 50.1 nM. The IC50 [4] was 5.01 to 50.1 nM.

For `COc1ccc(Cl)cc1-n1ncc2c(NCCNC(C)=O)nc(-c3cnn4cccnc34)cc21` [Example 53, N-(2-((1-(5-chloro-2-methoxyphenyl)-6-(pyrazolo[1,5-a]pyrimidin-3-yl)-1H-pyrazolo[4,3-c]pyridin-4-yl)amino)ethyl)acetamide], the IC50 [1] was over 50.1 nM, the IC50 [2] was over 50.1 nM and the IC50 [3] was 5.01 to 50.1 nM. The IC50 [4] was over 50.1 nM.

With `CNC(=O)CNc1nc(-c2cnn3cccnc23)cc2c1cnn2-c1cc(Cl)ccc1OC` [Example 54, 2-((1-(5-chloro-2-methoxyphenyl)-6-(pyrazolo[1,5-a]pyrimidin-3-yl)-1H-pyrazolo[4,3-c]pyridin-4-yl)amino)-N-methylacetamide] the IC50 [1] was 5.01 to 50.1 nM, the IC50 [2] was over 50.1 nM and the IC50 [3] was 5.01 to 50.1 nM. The IC50 [4] was 5.01 to 50.1 nM.

With `COc1ccc(Cl)cc1-n1ncc2c(NC(C)=O)nc(-c3cnn4cccnc34)cc21` [Example 55, N-(1-(5-chloro-2-methoxyphenyl)-6-(pyrazolo[1,5-a]pyrimidin-3-yl)-1H-pyrazolo[4,3-c]pyridin-4-yl)acetamide] the IC50 [1] was over 50.1 nM, the IC50 [2] was over 50.1 nM and the IC50 [3] was 5.01 to 50.1 nM. It also gave an IC50 [4] of 5.01 to 50.1 nM.

For `COc1ccc(Cl)cc1-n1ncc2c(N)nc(-c3cnn4cccnc34)cc21` [Example 56, 1-(5-chloro-2-methoxyphenyl)-6-(pyrazolo[1,5-a]pyrimidin-3-yl)-1H-pyrazolo[4,3-c]pyridin-4-amine], the IC50 [1] was 5.01 to 50.1 nM, the IC50 [2] was 5.01 to 50.1 nM and the IC50 [3] was 5.01 to 50.1 nM. The IC50 [4] was 5.01 to 50.1 nM.

In the case of `COc1ccc(Cl)cc1-n1ncc2c(O)nc(-c3cnn4cccnc34)cc21` [Example 57, 1-(5-chloro-2-methoxyphenyl)-6-(pyrazolo[1,5-a]pyrimidin-3-yl)-1H-pyrazolo[4,3-c]pyridin-4-ol], the IC50 [1] was 5.01 to 50.1 nM, the IC50 [2] was 5.01 to 50.1 nM and the IC50 [3] was 5.01 to 50.1 nM. The IC50 [4] was at most 5.01 nM.

`COc1cc(O)c(F)cc1-n1nc(C)c2cnc(-c3cnn4cccnc34)cc21` [Example 58, 2-fluoro-5-methoxy-4-(3-methyl-6-(pyrazolo[1,5-a]pyrimidin-3-yl)-1H-pyrazolo[4,3-c]pyridin-1-yl)phenol] showed an IC50 [1] of at most 5.01 nM, an IC50 [2] of 5.01 to 50.1 nM and an IC50 [3] of at most 5.01 nM. It also gave an IC50 [4] of at most 5.01 nM.

Work on `COc1cc(O)c(Cl)cc1-n1nc(C)c2cnc(-c3cnn4cccnc34)cc21` [Example 59, 2-chloro-5-methoxy-4-(3-methyl-6-(pyrazolo[1,5-a]pyrimidin-3-yl)-1H-pyrazolo[4,3-c]pyridin-1-yl)phenol] yielded an IC50 [1] of at most 5.01 nM, an IC50 [2] of 5.01 to 50.1 nM and an IC50 [3] of at most 5.01 nM. The IC50 [4] was at most 5.01 nM.

For `COc1cc(O)c(C)cc1-n1nc(C)c2cnc(-c3cnn4cccnc34)cc21` [Example 60, 5-methoxy-2-methyl-4-(3-methyl-6-(pyrazolo[1,5-a]pyrimidin-3-yl)-1H-pyrazolo[4,3-c]pyridin-1-yl)phenol], the IC50 [1] was at most 5.01 nM, the IC50 [2] was 5.01 to 50.1 nM and the IC50 [3] was at most 5.01 nM. It also gave an IC50 [4] of at most 5.01 nM.

For `COc1cnc(Cl)cc1-n1nc(C)c2cnc(-c3cnn4cccnc34)cc21` [Example 61, 1-(2-chloro-5-methoxypyridin-4-yl)-3-methyl-6-(pyrazolo[1,5-a]pyrimidin-3-yl)-1H-pyrazolo[4,3-c]pyridine], the IC50 [1] was 5.01 to 50.1 nM, the IC50 [2] was over 50.1 nM and the IC50 [3] was 5.01 to 50.1 nM. The IC50 [4] was 5.01 to 50.1 nM.

Work on `Cc1nn(-c2cc(Cl)ccc2CO)c2cc(-c3cnn4cccnc34)ncc12` [Example 62, (4-chloro-2-(3-methyl-6-(pyrazolo[1,5-a]pyrimidin-3-yl)-1H-pyrazolo[4,3-c]pyridin-1-yl)phenyl)methanol] yielded an IC50 [1] of 5.01 to 50.1 nM, an IC50 [2] of over 50.1 nM and an IC50 [3] of over 50.1 nM. It also gave an IC50 [4] of 5.01 to 50.1 nM.

For `Cc1nn(-c2cc(Br)ccc2OC(F)F)c2cc(-c3cnn4cccnc34)ncc12` [Example 63, 1-(5-bromo-2-(difluoromethoxy)phenyl)-3-methyl-6-(pyrazolo[1,5-a]pyrimidin-3-yl)-1H-pyrazolo[4,3-c]pyridine], the IC50 [1] was at most 5.01 nM, the IC50 [2] was 5.01 to 50.1 nM and the IC50 [3] was at most 5.01 nM. It also gave an IC50 [4] of at most 5.01 nM.

`Cc1nn(-c2cc(C#N)ccc2OC(F)F)c2cc(-c3cnn4cccnc34)ncc12` [Example 64, 4-(difluoromethoxy)-3-(3-methyl-6-(pyrazolo[1,5-a]pyrimidin-3-yl)-1H-pyrazolo[4,3-c]pyridin-1-yl)benzonitrile] showed an IC50 [1] of at most 5.01 nM, an IC50 [2] of 5.01 to 50.1 nM and an IC50 [3] of 5.01 to 50.1 nM. The IC50 [4] was at most 5.01 nM.

In the case of `Cc1ccc(OC(F)F)c(-n2nc(C)c3cnc(-c4cnn5cccnc45)cc32)c1` [Example 65, 1-(2-(difluoromethoxy)-5-methylphenyl)-3-methyl-6-(pyrazolo[1,5-a]pyrimidin-3-yl)-1H-pyrazolo[4,3-c]pyridine], the IC50 [1] was at most 5.01 nM, the IC50 [2] was 5.01 to 50.1 nM and the IC50 [3] was 5.01 to 50.1 nM. For the same compound, the IC50 [4] was 5.01 to 50.1 nM.

Compound `Cc1nn(-c2cc(C(=O)Nc3nccs3)ccc2OC(F)F)c2cc(-c3cnn4cccnc34)ncc12` [Example 66, 4-(difluoromethoxy)-3-(3-methyl-6-(pyrazolo[1,5-a]pyrimidin-3-yl)-1H-pyrazolo[4,3-c]pyridin-1-yl)-N-(thiazol-2-yl)benzamide] has an IC50 [1] of at most 5.01 nM, an IC50 [2] of over 50.1 nM and an IC50 [3] of 5.01 to 50.1 nM. It also gave an IC50 [4] of 5.01 to 50.1 nM.

From US20240279240A1, “HETEROCYCLIC DERIVATIVES AS JANUS KINASE INHIBITORS” (CHIESI FARMACEUTICI S.P.A., priority 2021, published 2024)
